Experimental data published in patent publication US9290476B2, “Methylene linked quinolinyl modulators of RORγt” (Janssen Pharmaceutica NV, priority 2012, dated 2016).
Where a name gives a salt, the structure may show the parent alone. Read-outs that look alike come from different tables or passages of the source.

Test system: IL-17 production by CD4 T cells
Assay: Human Th17 assay (IL-17 production by CD4 T cells under Th17 differentiation)
Format: cell-based
Settings: read-out: Human Th17 Assay, IC50 μM
From the text: The human Th17 assay tests the effect of RORγt modulatory compounds on IL-17 production by CD4 T cells under conditions which favor Th17 differentiation.
Total CD4^+ T cells were isolated from the peripheral blood mononuclear cells (PBMC) of healthy donors using a CD4^+ T cell isolation kit II, following the manufacturer's instructions (Miltenyi Biotec). Cells were resuspended in a medium of RPMI-1640 supplemented with 10% fetal bovine serum, penicillin, streptomycin, glutamate, and β-mercaptoethanol and were added to 96-well plates at 1.5×10^5 per 100 μL per well. 50 μL of compound at titrated concentrations in DMSO were added into each well at final DMSO concentration at 0.2%. Cells were incubated for 1 hour, then 50 μL of Th17 cell differentiation medium was added to each well. The final concentrations of antibodies and cytokines (R&D Systems) in differentiation medium were: 3×10^6/mL anti-CD3/CD28 beads (prepared using human T cell activation/expansion kit, Miltenyi Biotec), 10 μg/mL anti-IL4, 10 μg/mL anti-IFNγ, 10 ng/mL IL1β, 10 ng/mL IL23, 50 ng/mL IL6, 3 ng/mL TGFβ and 20 U/mL IL2. Cells were cultured at 37° C. and 5% CO2 for 3 days. Supernatants were collected and the accumulated IL-17 in culture was measured by using MULTI-SPOT® Cytokine Plate following manufacture's instruction (Meso Scale Discovery). The plate was read using Sector Imager 6000, and IL-17 concentration was extrapolated from the standard curve. The IC50s were determined by GraphPad.

| SMILES | IC50 (Homo sapiens, CD4+ T, 72 h) | also measured |
| --- | --- | --- |
| COc1nc2ccc(C(O)(c3ccc(Cl)cc3)c3cncn3C)cc2c(Cl)c1Cc1ccc(-n2cccn2)cc1 (single isomer, unassigned) [Example 33C, (3-(4-(1H-pyrazol-1-yl)benzyl)-4-chloro-2-methoxyquinolin-6-yl)(4-chlorophenyl)(1-methyl-1H-imidazol-5-yl)methanol] | 0.067 µM | – |
| COc1nc2ccc(C(O)(c3ccc(C(F)(F)F)nc3)c3cncn3C)cc2c(Cl)c1Cc1ccc(-n2cccn2)cc1 (single isomer, unassigned) [Example 35B, (3-(4-(1H-pyrazol-1-yl)benzyl)-4-chloro-2-methoxyquinolin-6-yl)(1-methyl-1H-imidazol-5-yl)(6-(trifluoromethyl)pyridin-3-yl)methanol] | 0.074 µM | – |
| COc1nc2ccc(C(O)(c3ccc(C(F)(F)F)nc3)c3cncn3C)cc2c(Cl)c1Cc1ccc(-n2cccn2)cc1 (single isomer, unassigned) [Example 35C, (3-(4-(1H-pyrazol-1-yl)benzyl)-4-chloro-2-methoxyquinolin-6-yl)(1-methyl-1H-imidazol-5-yl)(6-(trifluoromethyl)pyridin-3-yl)methanol] | – | IC50: 0.051 µM |
| COc1nc2ccc(C(O)(c3cncn3C)C3CCN(C(C)=O)CC3)cc2c(Cl)c1Cc1ccc(-n2cccn2)cc1 (single isomer, unassigned) [Example 60B, 1-(4-((3-(4-(1H-Pyrazol-1-yl)benzyl)-4-chloro-2-methoxyquinolin-6-yl)(hydroxy)(1-methyl-1H-imidazol-5-yl)methyl)piperidin-1-yl)ethanone] | – | IC50 (Homo sapiens, CD4+ T, 72 h, human CD4+ T cells, IL-17 after 3 days): 0.17 µM |
| COc1nc2ccc(C(O)(c3cncn3C)C3CCN(C(C)=O)CC3)cc2c(Cl)c1Cc1ccc(-n2cccn2)cc1 (single isomer, unassigned) [Example 60C, 1-(4-((3-(4-(1H-Pyrazol-1-yl)benzyl)-4-chloro-2-methoxyquinolin-6-yl)(hydroxy)(1-methyl-1H-imidazol-5-yl)methyl)piperidin-1-yl)ethanone] | – | IC50 (human CD4+ T cells, IL-17 after 3 days): 0.16 µM |
| COc1nc2ccc(C(O)(c3ccc(C(F)(F)F)nc3)c3cncn3C)cc2c(Cl)c1Cc1ccc(C(F)(F)F)cc1 (single isomer, unassigned) [Example 62B, (4-Chloro-2-methoxy-3-(4-(trifluoromethyl)benzyl)quinolin-6-yl)(1-methyl-1H-imidazol-5-yl)(6-(trifluoromethyl)pyridin-3-yl)methanol] | 0.1 µM | – |
| COc1nc2ccc(C(O)(c3ccc(C(F)(F)F)nc3)c3cncn3C)cc2c(Cl)c1Cc1ccc(C(F)(F)F)cc1 (single isomer, unassigned) [Example 62C, (4-Chloro-2-methoxy-3-(4-(trifluoromethyl)benzyl)quinolin-6-yl)(1-methyl-1H-imidazol-5-yl)(6-(trifluoromethyl)pyridin-3-yl)methanol] | – | IC50: 0.064 µM |
| COc1nc2ccc(C(O)(c3ccc(Cl)cc3)c3cncn3C)cc2c(Cl)c1Cc1ccc(C#N)cc1 (single isomer, unassigned) [Example 63C, 4-((4-Chloro-6-((4-chlorophenyl)(hydroxy)(1-methyl-1H-imidazol-5-yl)methyl)-2-methoxyquinolin-3-yl)methyl)benzonitrile] | 0.038 µM | – |
| COc1nc2ccc(C(O)(c3ccc(Cl)cc3)c3cncn3C)cc2c(Cl)c1Cc1ccc(-n2cccn2)cc1 (centres unmarked) [Example 33A, (3-(4-(1H-Pyrazol-1-yl)benzyl)-4-chloro-2-methoxyquinolin-6-yl)(4-chlorophenyl)(1-methyl-1H-imidazol-5-yl)methanol] | 0.14 µM | – |
| COc1nc2ccc(C(O)(c3ccc(C(F)(F)F)nc3)c3cncn3C)cc2c(Cl)c1Cc1ccc(-n2cccn2)cc1 (centres unmarked) [Example 35A, (3-(4-(1H-Pyrazol-1-yl)benzyl)-4-chloro-2-methoxyquinolin-6-yl)(1-methyl-1H-imidazol-5-yl)(6-(trifluoromethyl)pyridin-3-yl)methanol.TFA] | 0.3 µM | – |
| COc1nc2ccc(C(O)(c3cnnn3C)c3cnnn3C)cc2c(Cl)c1Cc1ccc(-n2cccn2)cc1 [Example 61, (3-(4-(1H-Pyrazol-1-yl)benzyl)-4-chloro-2-methoxyquinolin-6-yl)bis(1-methyl-1H-1,2,3-triazol-5-yl)methanol] | 0.0042 µM | – |
